Test results from article PMC12155096 (International Journal of Molecular Sciences, 2025).
Structures can show the parent of a compound that is named as a salt. Where two headings read alike, the source gives them in different places.

Tests used:
human CYP2D6 [1] = molecular target: T1, human CYP2D6 (Homo sapiens, UniProt P10635); conditions: human
human CYP1A2 [2] = molecular target: T2, human CYP1A2 (Homo sapiens, UniProt P05177); conditions: human
T2 sequence (P05177 1-516): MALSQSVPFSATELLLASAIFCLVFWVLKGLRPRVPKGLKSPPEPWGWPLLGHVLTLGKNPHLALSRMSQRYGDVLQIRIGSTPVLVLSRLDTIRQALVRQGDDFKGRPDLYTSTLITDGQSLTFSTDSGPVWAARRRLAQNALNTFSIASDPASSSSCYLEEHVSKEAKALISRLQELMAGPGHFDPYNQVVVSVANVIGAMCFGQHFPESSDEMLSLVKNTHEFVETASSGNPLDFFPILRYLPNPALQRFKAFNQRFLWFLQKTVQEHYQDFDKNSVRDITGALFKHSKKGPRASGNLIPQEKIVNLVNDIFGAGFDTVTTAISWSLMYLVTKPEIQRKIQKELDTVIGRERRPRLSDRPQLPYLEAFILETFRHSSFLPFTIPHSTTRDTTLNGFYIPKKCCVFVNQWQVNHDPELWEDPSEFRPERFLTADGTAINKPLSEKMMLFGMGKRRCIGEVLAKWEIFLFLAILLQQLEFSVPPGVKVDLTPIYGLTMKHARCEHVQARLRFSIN

human CYP2C9 [3] = molecular target: T3, human CYP2C9 (Homo sapiens, UniProt P11712); conditions: human
human CYP2C19 [4] = molecular target: T4, human CYP2C19 (Homo sapiens, UniProt P33261); experiment: biochemical
human CYP2C9 [5] = molecular target: T3, human CYP2C9; experiment: biochemical
human CYP2C19 [6] = molecular target: T4, human CYP2C19; conditions: human
human CYP1A2 [7] = molecular target: T2, human CYP1A2; experiment: biochemical
human CYP2D6 [8] = molecular target: T1, human CYP2D6; experiment: biochemical; conditions: for AC50: CYP2D6 AC50 (half-maximal activity concentration)
[9] = CYP2C19 IC50 (half-maximal inhibitory concentration)
[10] = CYP2C9 IC50 (half-maximal inhibitory concentration)
[11] = CYP1A2 IC50 (half-maximal inhibitory concentration)
[12] = CYP2D6 IC50 (half-maximal inhibitory concentration)
[13] = CYP2C19 AC50 (half-maximal activity concentration)
[14] = CYP2C9 AC50 (half-maximal activity concentration)
[15] = CYP1A2 AC50 (half-maximal activity concentration)

T1 sequence (P10635 whole entry): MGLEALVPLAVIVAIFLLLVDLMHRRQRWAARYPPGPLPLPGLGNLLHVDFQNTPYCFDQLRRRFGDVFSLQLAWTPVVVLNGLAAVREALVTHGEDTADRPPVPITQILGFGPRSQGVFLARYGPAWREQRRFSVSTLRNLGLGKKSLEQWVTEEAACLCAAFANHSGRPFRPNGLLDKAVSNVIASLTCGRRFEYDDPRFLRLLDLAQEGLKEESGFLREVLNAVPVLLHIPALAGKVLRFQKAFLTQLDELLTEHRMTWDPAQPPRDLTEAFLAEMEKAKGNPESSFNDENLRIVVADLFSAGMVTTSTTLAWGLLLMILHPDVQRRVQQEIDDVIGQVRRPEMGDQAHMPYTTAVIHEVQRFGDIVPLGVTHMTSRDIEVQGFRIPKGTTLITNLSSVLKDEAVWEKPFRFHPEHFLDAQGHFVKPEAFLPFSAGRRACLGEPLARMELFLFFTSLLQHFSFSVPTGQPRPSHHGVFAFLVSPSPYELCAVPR
T3 sequence (P11712 whole entry): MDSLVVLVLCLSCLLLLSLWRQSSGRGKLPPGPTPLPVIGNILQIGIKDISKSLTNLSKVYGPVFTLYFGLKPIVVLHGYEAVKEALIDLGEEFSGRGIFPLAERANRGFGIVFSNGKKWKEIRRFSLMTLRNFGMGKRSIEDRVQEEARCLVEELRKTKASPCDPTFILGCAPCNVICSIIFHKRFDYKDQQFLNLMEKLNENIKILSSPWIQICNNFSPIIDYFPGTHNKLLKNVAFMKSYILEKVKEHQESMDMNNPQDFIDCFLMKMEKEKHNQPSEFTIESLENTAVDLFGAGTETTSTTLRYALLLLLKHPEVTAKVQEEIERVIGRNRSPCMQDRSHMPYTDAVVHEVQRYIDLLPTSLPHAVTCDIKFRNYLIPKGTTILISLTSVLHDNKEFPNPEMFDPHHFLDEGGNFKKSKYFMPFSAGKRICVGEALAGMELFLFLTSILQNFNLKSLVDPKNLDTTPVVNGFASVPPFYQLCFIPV
T4 sequence (P33261 whole entry): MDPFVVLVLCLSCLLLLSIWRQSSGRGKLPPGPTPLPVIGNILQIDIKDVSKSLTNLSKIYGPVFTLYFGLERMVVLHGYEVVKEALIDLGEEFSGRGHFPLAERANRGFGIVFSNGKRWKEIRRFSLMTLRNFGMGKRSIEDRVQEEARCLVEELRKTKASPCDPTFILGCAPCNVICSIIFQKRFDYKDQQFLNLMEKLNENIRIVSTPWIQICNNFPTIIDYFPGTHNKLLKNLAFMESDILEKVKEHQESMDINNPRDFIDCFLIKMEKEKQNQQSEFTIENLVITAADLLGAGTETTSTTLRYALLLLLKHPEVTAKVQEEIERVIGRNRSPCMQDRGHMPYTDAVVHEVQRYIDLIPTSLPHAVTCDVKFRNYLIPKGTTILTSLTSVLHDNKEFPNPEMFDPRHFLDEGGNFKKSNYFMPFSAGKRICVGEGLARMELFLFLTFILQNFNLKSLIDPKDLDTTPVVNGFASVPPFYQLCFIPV

SMILES | CYP2D6 Efficacy (in parenthesis) (human CYP2D6 [1]) | CYP1A2 Efficacy (in parenthesis) (human CYP1A2 [2]) | IC50 (human CYP2C19 [4]; [9]) [µM] | IC50 (human CYP2C9 [5]; [10]) [µM] | CYP2C19 Efficacy (in parenthesis) (human CYP2C19 [6]) | IC50 (human CYP1A2 [7]; [11]) [µM] | IC50 (human CYP2D6 [8]; [12]) [µM] | IC50 (human CYP2C9 [5]) [µM] | IC50 (human CYP2D6 [8]) [µM] | other results
O=C1c2ccccc2C(=O)C1C(=O)C(c1ccccc1)c1ccccc1 [Diphacinone] | 32.29 ± 4.12 (-49 ± 4) % | 28.28 ± 11.08 (-93 ± 7) % | 34.8 | 0.53 | 34.81 ± 11.45 (-80 ± 23) % | 28.3 | 32.3 |  |  | CYP2C9 Efficacy (in parenthesis) (human CYP2C9 [3]): 0.53 ± 0.74 (-101 ± 4) %; IC50 (human CYP2C9 [5]; IC50 CYP2C9 assay): 0.5 µM
Clc1cccc(C(c2ccc3[nH]cnc3c2)n2ccnc2)c1 (stereo not shown) [Liarozole] |  |  |  |  |  |  |  | 11.2 ± 2.55 | 31 ± 3.57 | CYP2D6 Efficacy (in parenthesis) (human CYP2D6 [1]; 1 h): 31.04 ± 3.57 (-56 ± 13) %; IC50 (human CYP2C19 [4]): 7.61 ± 4.78 µM; IC50 (human CYP1A2 [7]): 16.8 ± 1.09 µM
CCOP(=S)(OCC)Oc1ccc2c(C)c(Cl)c(=O)oc2c1 [Coumaphos] | 5.34 ± 0.96 (-101 ± 7) % | 3.5 ± 0.6 (-95 ± 2) % | 0.32 |  | 0.32 ± 0.04 (-144 ± 23) % | 3.5 |  | 0.28 | 5.34 | CYP2C9 Efficacy (in parenthesis) (human CYP2C9 [3]): 0.28 ± 0.02 (-103 ± 5) %
Clc1ccc(CCC(Cn2ccnc2)Sc2c(Cl)cccc2Cl)cc1 (stereo not shown) [Butoconazole nitrate] | 2.37 ± 0.15 (-100 ± 5) % | 16.12 ± 1.09 (-93 ± 6) % | 0.04 | 0.1 | 0.04 ± 0.0 (-132 ± 17) % | 16.1 | 2.37 |  |  | CYP2C9 Efficacy (in parenthesis) (human CYP2C9 [3]): 0.1 ± 0.02 (-98 ± 4) %
c1ccc(-c2ccc(C(c3ccccc3)n3ccnc3)cc2)cc1 (stereo not shown) [Bifonazole] | 1.82 ± 0.33 (-107 ± 6) % | 5.3 ± 0.35 (-105 ± 4) % | 0.47 | 0.25 | 0.47 ± 0.14 (-136 ± 18) % | 5.3 | 1.82 |  |  | CYP2C9 Efficacy (in parenthesis) (human CYP2C9 [3]): 0.25 ± 0.05 (-104 ± 3) %
O=S(=O)(c1ccc(Cl)cc1)c1ccc(Cl)cc1 [4,4'-Dichlorodiphenyl sulfone] | 40.58 ± 4.66 (-51 ± 10) % | 36.17 ± 4.16 (-44 ± 9) % | 0.34 | 31.4 | 0.34 ± 0.1 (-146 ± 11) % | 36.2 | 40.6 |  |  | CYP2C9 Efficacy (in parenthesis) (human CYP2C9 [3]): 31.35 ± 2.66 (-52 ± 4) %
CNC(=O)Oc1ccc2c(c1)[C@]1(C)CCN(C)[C@@H]1N2C [Physostigmine] |  |  | 45.4 | 80 |  | 55.4 | 0.59 |  |  | 
O[C@@H](COc1cccc2ncccc12)CN1CCN([C@@H]2c3ccccc3[C@@H]3[C@H](c4ccccc42)C3(F)F)CC1 [Zosuquidar trihydrochloride] |  |  | 20.4 | 9.14 |  | 15.5 | 15.2 |  |  | 
C[C@]12Cc3c[nH]nc3C[C@@H]1CC[C@@H]1[C@@H]2CC[C@@]2(C)[C@H]1CC[C@]2(C)O [Stanozolol] |  |  | 0.55 | 0.94 |  | 21.5 | 10.8 |  |  | 
COc1ccc(C(c2ccc(OC)cc2)C(Cl)(Cl)Cl)cc1 [Methoxychlor] |  |  | 0.86 | 2.45 |  | 17.8 | 35.5 |  |  | 
N#C/C(=C1/SCC(c2ccccc2Cl)S1)n1ccnc1 (stereo not shown) [Lanoconazole] |  |  |  |  |  |  |  | 2.77 ± 0.32 | 2.58 ± 0.46 | CYP2D6 Efficacy (in parenthesis) (human CYP2D6 [1]; 1 h): 2.58 ± 0.46 (-102 ± 1) %; IC50 (human CYP2C19 [4]): 0.12 ± 0.05 µM; IC50 (human CYP1A2 [7]): 0.87 ± 0.1 µM
CCCCCOc1ccccc1/C(=C\SC)n1ccnc1 [Neticonazole] |  |  |  |  |  |  |  | 7.76 ± 3.93 | 7.69 ± 5.3 | IC50 (human CYP2C19 [4]): 3.49 ± 2.23 µM; IC50 (human CYP1A2 [7]): 4.51 ± 2.88 µM
COP(=S)(OC)SCN1C(=O)c2ccccc2C1=O [Phosmet] |  |  | 0.47 |  |  | 6.92 |  | 2.04 | 24.6 | 
COCCOC(=O)C1=C(C)NC(C)=C(C(=O)OC/C=C/c2ccccc2)C1c1cccc([N+](=O)[O-])c1 (stereo not shown) [Cilnidipine] |  |  | 1.75 | 0.21 |  | 15.6 | 29.2 |  |  | 
CCCc1c(OCCCCc2nnn[nH]2)ccc(C(C)=O)c1O [Tomelukast] |  |  | 0.15 | 0.15 |  | 54.3 | 31.7 |  |  | 
CC(C)=CCOc1c2occc2cc2ccc(=O)oc12 [Imperatorin] | 4.72 ± 0.31 (-110 ± 6) % | 0.42 ± 0.17 (-97 ± 12) % | 4.36 | 0.62 | 4.36 ± 0.0 (-126 ± 1) % | 0.42 | 4.72 |  |  | CYP2C9 Efficacy (in parenthesis) (human CYP2C9 [3]): 0.62 ± 0.07 (-96 ± 6) %

SMILES | CYP2D6 Efficacy (in parenthesis) (human CYP2D6 [1]) | CYP1A2 Efficacy (in parenthesis) (human CYP1A2 [2]) | IC50 (human CYP2C19 [4]; [9]) [µM] | IC50 (human CYP2C9 [5]; [10]) [µM] | CYP2C19 Efficacy (in parenthesis) (human CYP2C19 [6]) | IC50 (human CYP1A2 [7]; [11]) [µM] | IC50 (human CYP2D6 [8]; [12]) [µM] | IC50 (human CYP2C9 [5]) [µM] | IC50 (human CYP2D6 [8]) [µM] | other results
CCN(CC)Cc1nccn1-c1ccc([N+](=O)[O-])cc1C(=O)c1ccccc1Cl [Nizofenone] |  |  |  |  |  |  |  | 25.1 | 2.98 | CYP2D6 Efficacy (in parenthesis) (human CYP2D6 [1]; 1 h): 2.98 ± 0.19 (-103 ± 6) %; IC50 (human CYP2C19 [4]): 18.8 µM; IC50 (human CYP1A2 [7]): 19.8 µM
CC(=O)SCC(Cc1ccccc1)C(=O)NCC(=O)OCc1ccccc1 (stereo not shown) [Racecadotril] |  |  | 0.64 | 3.34 |  | 15.1 | 1.24 |  |  | 
Clc1ccc(COC(Cn2ccnc2)c2ccc(Cl)cc2Cl)cc1 (stereo not shown) [Econazole nitrate] | 0.4 ± 0.23 (-105 ± 10) % | 1.18 ± 0.6 (-104 ± 2) % | 0.15 |  | 0.15 ± 0.02 (-152 ± 3) % | 1.18 | 0.4 |  |  | 
CC(C)OC(=O)c1cc(C(=O)OC(C)C)cc([N+](=O)[O-])c1 [Nitrothal-isopropyl] |  |  |  |  |  |  |  | 1.06 | 6.51 | IC50 (human CYP2C19 [4]): 0.52 µM; IC50 (human CYP1A2 [7]): 2.34 µM
COC(=O)c1c(Cl)c(Cl)c(C(=O)OC)c(Cl)c1Cl [Chlorthal-dimethyl] |  |  |  |  |  |  |  | 1.43 | 45 | CYP2D6 Efficacy (in parenthesis) (human CYP2D6 [1]; 1 h): 44.96 ± 16.37 (-48 ± 8) %; AC50 (human CYP2C19 [4]): 21.8 µM; IC50 (human CYP2C19 [4]): 20.7 µM; AC50 (human CYP2C9 [5]): 1.46 µM; AC50 (human CYP1A2 [7]): 0.29 µM; IC50 (human CYP1A2 [7]): 0.21 µM
COc1c2occc2c(OC)c2c(=O)cc(C)oc12 [Khellin] |  |  | 6.65 | 14.4 |  | 0.15 | 14.5 |  |  | 
CCCCOCCOCCOCc1cc2c(cc1CCC)OCO2 [Piperonyl butoxide] |  |  | 0.5 | 0.65 |  | 1.03 | 6.78 |  |  | 
CC1CCC(C(C)C)C(OC(=O)c2ccccc2N)C1 (stereo not shown) [Menthyl anthranilate] |  |  |  |  |  |  |  |  |  | AC50 (human CYP2C19 [4]; [13]): 4.62 µM; AC50 (human CYP2C9 [5]; [14]): 4.33 µM; AC50 (human CYP1A2 [7]; [15]): 16.6 µM; AC50 (human CYP2D6 [8]): 57.9 µM
CC[N+](CC)(CC(=O)Nc1c(C)cccc1C)Cc1ccccc1 [Denatonium benzoate] | 0.01 ± 0 (-107 ± 7) % | 38.47 ± 2.51 (-59 ± 16) % | 38.5 |  | 38.47 ± 2.51 (-100 ± 4) % | 38.5 | 0.01 |  |  | 
CCOP(=S)(OCC)SCSc1ccc(Cl)cc1 [Carbophenothion] | 13.25 ± 2.38 (-84 ± 7) % | 8.84 ± 2.46 (-90 ± 2) % | 0.47 |  | 0.47 ± 0.18 (-138 ± 5) % | 8.84 |  | 1.13 | 13.2 | CYP2C9 Efficacy (in parenthesis) (human CYP2C9 [3]): 1.13 ± 0.13 (-94 ± 12) %
CN(C)C(=O)Nc1ccc(Cl)c(Cl)c1 [Diuron] | 42.09 ± 18.16 (-73 ± 17) % | 0.86 ± 0.12 (-103 ± 3) % | 39.5 | 69.4 | 39.45 ± 16.91 (-98 ± 5) % | 0.86 | 42.1 |  |  | CYP2C9 Efficacy (in parenthesis) (human CYP2C9 [3]): 69.41 ± 26.11 (-48 ± 19) %
CC(C)(C)C(=O)C(Oc1ccc(Cl)cc1)n1ccnc1 (stereo not shown) [Climbazole] |  |  | 1.56 | 3.23 |  | 16.1 | 28.7 |  |  | 
CC(COc1ccccc1)NC(C)C(O)c1ccc(O)cc1 (stereo not shown) [Isoxsuprine hydrochloride] |  |  | 7.99 | 14.9 |  | 16.1 | 0.55 |  |  | AC50 (human CYP2C19 [4]; [13]): 7.99 µM; AC50 (human CYP2C9 [5]; [14]): 14.9 µM; AC50 (human CYP1A2 [7]; [15]): 16.1 µM; AC50 (human CYP2D6 [8]): 0.55 µM
O=C(OCC(O)CO)c1ccccc1Nc1ccnc2c(C(F)(F)F)cccc12 (stereo not shown) [Floctafenine] |  |  |  |  |  |  |  | 10.2 ± 0.69 | 23.6 ± 7.75 | IC50 (human CYP2C19 [4]): 0.35 µM; IC50 (human CYP1A2 [7]): 2.91 ± 0.17 µM
C/C(=C(/OCCOc1ccc(Cl)cc1)c1ccc(Cl)cc1Cl)n1ccnc1 [Omoconazole] |  |  |  |  |  |  |  | 0.87 ± 0.1 | 1.67 ± 0.11 | IC50 (human CYP2C19 [4]): 0.92 ± 0.4 µM; IC50 (human CYP1A2 [7]): 2.5 ± 0.24 µM
